Here are results for two molecules from patent US7375135B2, “Fatty acid derivatives; preparation and uses thereof” (Genfit, priority 2001, dated 2008).

Test [1] in a line: Plasma lipids and their distribution in lipoparticles in Sprague-Dawley rats. The format is in vivo, rat. Particulars: 300 mg/kg/d. The method, then:
(§1) Sprague-Dawley or Wistar rats weighing 200 to 230 g (Charles River, L'Arbresle, France) were housed in a 12-hour light/dark cycle at a constant temperature of 20±3° C. After a 1-week acclimatization period, rats were weighed and distributed into groups of 8 animals selected such that the distribution of plasma cholesterol and triglyceride levels was uniform. The test compounds were suspended in carboxymethylcellulose and administered by gastric lavage at the indicated doses, once a day for 15 days. Animals had access to food and water ad libitum. At the end of the experiments, animals were weighed and sacrificed under anesthesia after a 5-hour fast. Blood was collected on EDTA. Plasma was isolated by centrifugation at 3000 rpm for 20 minutes. Liver samples were removed and stored frozen in liquid nitrogen until further analysis.
(§2) Lipid concentrations in plasma (total cholesterol and free cholesterol, triglycerides and phospholipids) were determined by a colorimetric assay (Bio-Mérieux, Marcy I'Etoile, France) according to the supplier's instructions. Plasma concentrations of apolipoproteins AII, AI and CIII were determined as previously described (Raspé et al., J. Lipid Res. 40, 2099-2110, 1999, Asset G et al., Lipids, 34, 39-44, 1999).
To separate the lipoproteins according to size, 300 μl of plasma were loaded on a Sepharose 6HR 10/30 column (Pharmacia, Uppsala, Sweden) and eluted at a constant flow rate (0.2 ml/minute) in PBS (pH 7.2). Optical density of the eluent was recorded at 280 nm. 0.3 ml fractions were collected. Lipid concentrations in the different fractions were determined by a colorimetric assay (Bio-Mérieux, Marcy I'Etoile, France) according to the supplier's instructions.

The subject of test [2] is hepatic expression of ACO, CPT-I, CPT-II, Apo AI, Apo CIII genes. The test can be described thus: Hepatic gene expression (RT-PCR) in treated Sprague-Dawley rats. Type of test: in vivo, rat. As to conditions: 300 mg/kg/d. The method, then:
as §1
Total RNA was isolated from the liver fragments by extraction with a mixture of guanidine thiocyanate/phenol acid/chloroform as previously described (Raspé et al., J. Lipid Res. 40, 2099-2110, 1999). Messenger RNA was quantified by semi-quantitative or quantitative RT-PCR with the Light Cycler Fast Start DNA Master Sybr Green I kit (Hoffman-La Roche, Basel, Switzerland) on a Light Cycler System (Hoffman-La Roche, Basel, Switzerland). Primer pairs specific for the ACO, Apo CIII, Apo AI, CPT-I and CPT-II genes were used as probes. Primer pairs specific for the 36B4, β-actin and GAPDH genes were used as control probes (see table I).

Test [3] can be described thus: Plasma cholesterol and triglycerides in Zucker rats. The format is in vivo, rat. The source says:
(§3) Male C57BL/6 mice (Charles River, L'Arbresle, France) aged 6 weeks at the start of the experiments were randomly divided into groups of 6 animals such that body weight distribution was uniform. Mice were given a low-fat diet (UAR AO4), a high-fat diet (29% (m/m) coconut oil) or the same enriched diet supplemented with the test compounds. Obese male Zucker rats (fa/fa) or non obese rats (fa/+) aged 5 or 21 weeks (Charles River, L'Arbresle, France) were divided into groups of 8 animals selected such that the distribution of plasma cholesterol and triglyceride levels was uniform, and maintained on a standard diet. Animals were housed in a 12 hour light/dark cycle at a constant temperature of 20° C.±3° C. Animals had access to food and water ad libitum. Food intake and weight increase were recorded. The test compounds were suspended in carboxymethylcellulose and administered by gastric lavage at the indicated doses, once a day for 15 days. At the end of treatment, some animals underwent a glucose tolerance test as described hereinbelow. At the end of the experiment the other animals were weighed and sacrificed under anesthesia after a 5 hour fast. Blood was collected on EDTA. Plasma was prepared by centrifugation at 3000 rpm for 20 minutes. Liver samples were removed and stored frozen in liquid nitrogen for subsequent analysis.
Plasma lipid concentrations (total cholesterol and triglycerides) were determined by a colorimetric assay (Bio-Mérieux, Marcy l'Etoile, France) according to the supplier's instructions.

Test [4] is described as follows: Plasma insulin and glucose balance in Zucker rats. Type of test: in vivo, rat. As to conditions: 300 mg/kg/d.
Source text: as §3
Blood glucose was determined by a colorimetric enzymatic assay (Sigma Aldrich, St Louis, Mo., USA).
Insulinemia was assayed on serum or plasma collected on EDTA.

Test [5] is described as follows: Glucose tolerance test in Zucker rats. The format is in vivo, rat. Particulars: 300 mg/kg/d.
Source text: as §3
Insulinemia was assayed on serum or plasma collected on EDTA. […]

The test system of a further test is PPARα. The experiment in a line: PPARα activation in vitro in HepG2 cells (Gal4 DNA binding domain / PPARα ligand binding domain chimera). Type of test: cell-based. As to conditions: dose-dependent, FIG. 11. The method, then:
Plasmids pG5TkpGL3, pGal4-hPPARα, pGal4-hPPARγ and pGal4-φ have been described previously (Raspé et al., J. Lipid Res. 40, 2099-2110, 1999). The pGal4-mPPARα and pGal4-hPPARδ constructs were obtained by cloning PCR-amplified DNA fragments corresponding to the DEF domains of the mouse PPARα and human PPARδ nuclear receptors into the pGal4-φ vector.
HepG2 and RK13 cells were from ECACC (Porton Down, UK) and were grown in DMEM medium supplemented with 10% (VN) fetal calf serum, 100 U/ml penicillin (Gibco, Paisley, UK) and 2 mM L-glutamine (Gibco, Paisley, UK). The culture medium was replaced every two days. Cells were kept at 37° C. in a humidified 5% CO2/95% air atmosphere.
HepG2 and RK13 cells seeded in 24-well culture dishes at a rate of 10^5 cells/well for HepG2 cells and 5×10^4 cells/well for RK13 cells were transfected for 2 hours with the reporter plasmid pG5TkpGL3 (10 ng/well), the expression vectors pGal4-φ, pGal4-mPPARα, pGal4-hPPARα, pGal4-hPPARγ, pGal4-hPPARδ (10 ng/well) and the transfection efficiency control vector pRL-null (Promega Madison, Wis., USA) (20 ng/well) according to the protocol previously described (Raspé et al., J. Lipid Res. 40, 2099-2110, 1999) and incubated for 36 hours with the test compounds. […]

For a further test, the system named is ABCA1 gene expression. The experiment in a line: ABCA1 and LXRα gene expression in human macrophages. The format is cell-based. Particulars: compound solubilized according to example 6, dose-dependent, FIG. 12. The method, then: THP-1 monocytes (ATCC, Rockville, Md., USA) were placed in 6-well culture dishes in the presence of PMA (phorbol myristate acetate) and fetal calf serum and incubated at 37° C. for 48 hours to allow them to differentiate to macrophages.
To obtain primary macrophages, mononuclear cells were isolated from human blood as previously described (Chinetti et al. Nat. Medecine 7(1), 53-58, 2001), placed in 6-well culture dishes and grown for 10 days in the presence of human serum to enable adherence and differentiation of the primary monocytes to macrophages.
Treatment with the different compounds was carried out for 48 hours in medium without human or fetal calf serum but supplemented with 1% Nutridoma HU serum (Boehringer).
Total RNA was extracted from treated macrophages with the mini RNeasy kit (Qiagen, Hilden, Germany) according to the supplier's instructions, assayed by spectrometry and quantified by quantitative RT-PCR with the Light Cycler Fast DNA Master Green I kit (Hoffman-La Riche, Basel, Switzerland) on a Light Cycler System (Hoffman-La Riche, Basel, Switzerland). Primer pairs specific for the ABCA1 and LXRα genes were used as probes.

Test [6] is described as follows: Plasma cholesterol and triglycerides in Wistar rats. The format is in vivo, rat. Particulars: 300 mg/kg/d, after 14 days of treatment. On the procedure:
as §1, with “The test compounds were suspended in carboxymethylcellulose and administered by gastric lavage at the indicated doses, once a day for 15 days.” left out
as §2

Test [7] concerns hepatic expression of the ACO gene. The test can be described thus: Hepatic ACO gene expression in treated Wistar rats. The format is in vivo, rat. Particulars: 300 mg/kg/d, FIG. 9C. The method, then:
as §1
Total RNA was isolated from the liver fragments by extraction with a mixture of guanidine thiocyanate/phenol acid/chloroform as previously described (Raspé et al., J. Lipid Res. 40, 2099-2110, 1999). Messenger RNA was quantified by semi-quantitative or quantitative RT-PCR with the Light Cycler Fast Start DNA Master Sybr Green I kit (Hoffman-La Roche, Basel, Switzerland) on a Light Cycler System (Hoffman-La Roche, Basel, Switzerland). Primer pairs specific for the ACO, Apo CIII, Apo AI, CPT-I and CPT-II genes were used as probes. […]

The structures appear in SMILES notation.

As for `CCCCCCCCCCCCCCSCC(=O)OCC(COC(=O)CSCCCCCCCCCCCCCC)OC(=O)CSCCCCCCCCCCCCCC` [Example 4a, 1,2,3-tritetradecylthioacetylglycerol], the “cholesterol distribution in lipoparticles (size exclusion chromatography)” value in test [1] (FIG. 2A) was “decrease in cholesterol in the different lipoparticle classes”. The “total plasma cholesterol levels” value in test [1] (FIG. 2B) is listed as “reduction of total plasma cholesterol levels”. In addition, in test [1] (FIG. 3A), the “triglyceride distribution in lipoparticles (size exclusion chromatography)” value is listed as “decrease in triglycerides in this lipoparticle class”. Further, the plasma triglyceride levels result in test [1] (FIG. 3B) was “reduction of plasma triglyceride levels”. Further, in test [1] (FIG. 4A), the “phospholipid distribution in lipoparticles (size exclusion chromatography)” value is on record as “decrease in phospholipids in the different lipoparticle classes”. Besides, the “total plasma phospholipid levels” value in [1] (FIG. 4B) was “reduction of total plasma phospholipid levels”. In test [2] (FIG. 5A), the “hepatic expression of ACO” value is given as “strong activation of hepatic expression of ACO”; the “hepatic expression of CPT-I” value was “smaller increase in the expression of the genes CPT-I and CPT-II”; the “hepatic expression of CPT-II” value is “smaller increase in the expression of the genes CPT-I and CPT-II”. For the same molecule, in test [2] (FIG. 5B), the “hepatic Apo AI expression” value is given as “slight decrease in hepatic Apo AI expression” and the “hepatic Apo CIII expression” value was “more marked decrease in Apo CIII expression”. In addition, in test [3] (300 mg/kg/d, FIG. 6A), the “total plasma cholesterol (gradual increase versus control group)” value is given as “said increase was slower”. In test [3] (300 mg/kg/d, FIG. 6B), the “plasma triglycerides (gradual increase versus control group)” value was “said increase was markedly slower”. In addition, the “plasma triglyceride levels, dose-effect relation” value in test [3] (doses of 0 to 600 mg/kg/d, FIG. 10) is listed as “gradual dose-dependent decrease in triglyceride levels”. The plasma glucose levels entry in test [4] (FIG. 7) is “glucose levels were equivalent in the two groups”. In addition, the insulin sensitivity entry in test [4] (concluded from insulin and glucose levels) is reported as “increased insulin sensitivity”. The “plasma insulin levels (gradual compensatory increase versus control group)” value in test [4] (especially after 14 days, FIG. 7) is “said increase was slower”. In test [5] (FIG. 8), the “plasma insulin levels during a glucose tolerance test” value is “used less insulin in response to the glucose injection”. Moreover, the insulin sensitivity entry in test [5] (concluded from glucose tolerance test) is on record as “increase in insulin sensitivity”. Besides, the “PPARα activation in vitro” value in the test on PPARα is “very strong activation of the PPARα nuclear receptor”. In addition, the ABCA1 gene expression result in the test on ABCA1 gene expression was “very strong activation of ABCA1 gene expression”.
In the case of `CCCCCCCCCCCCCCCC(=O)OCC(COC(=O)CCCCCCCCCCCCCCC)OC(=O)CSCCCCCCCCCCCCCC` [Example 4g, 1,3-dipalmitoyl-2-tetradecylthioacetylglycerol], the plasma cholesterol result in test [6] (FIG. 9A) was “decrease in circulating cholesterol and triglyceride levels”. The plasma triglycerides result in test [6] (FIG. 9B) was “decrease in circulating cholesterol and triglyceride levels”. Also, the “hepatic expression of the ACO gene” value in test [7] is reported as “marked activation of hepatic expression of the ACO gene”.
